In one data set the test system is HCV gT3a replicon. Briefly: HCV replicon assay, gT3a. The following applies: Huh7 replicon cells; mean; read-out: gT3a, EC50 (pM) mean. Format: cell-based, Hepatitis C virus (HCV). Here is the method:
(§1) The HCV replicon assay was used to determine the antiviral activity of compounds of general formula 2 (test compounds). The test cell line used in the HCV Replicon Assay was the human hepatoma cell line Huh7 incorporating the HCV replicons synthesized by an outside vendor.
(§2) 96-well plates were seeded with cells at a density of 7.5×10^3 cells per well in 50 μl of assay media. The compound stock solution was made up freshly in an assay medium (DMEM 1×, Cellgro; cat. #10-013-CV) as a 2× stock. A total of 11 serial 3-fold dilutions of test compounds were prepared from the 2× stock in the assay media ranging from 20 nM-0.2 pM final concentrations. At least 4 hours after seeding the cells, compound treatment was initiated by adding 50 μl of compound dilution to the plates. The final concentrations of compound therefore ranged from 10 nM to 0.1 pM when diluted 1:1 in culture media. The final DMSO concentration was 0.5%. Cells and inhibitors were incubated for 3 days at 37° C./5% CO2. The media was removed from the plates by gentle tapping. The cells were fixed with 100 μl 1:1 acetone:methanol for 1 minute, washed three times with PBS buffer, and then blocked with 150 μl/well 10% Fetal Bovine Serum (FBS) in PBS for 1 hour at room temperature. The cells were then washed three times with PBS buffer and incubated with 100 μl/well anti-hepatitis C core mAb (Affinity BioReagents; cat. # MA1-080, 1 mg/ml stock diluted 1:4,000 in 10% FBS-PBS) for 2 hours at 37° C. Then, the cells were washed three times with PBS and incubated with 100 μl/well HRP-Goat Anti-Mouse antibody (diluted 1:3.500 in 10% FBS-PBS) for 1 hour at 37° C. The cells were then washed three times with PBS and developed with an OPD solution, 100 μl/well (1 OPD tablet+12 ml citrate/phosphate buffer+5 μl 30% H2O2 per plate), for 30 minutes in the dark at room temperature. The reaction was stopped with 2N H2SO4 (100 μl/well), and the absorbance was measured at A490 X on a Victor^3 V 1420 multilabel counter (Perkin Elmer).
Background: Replicon systems follow genome replication, usually without infectious particles.

A further data set concerns HCV gT1b replicon. Briefly: HCV replicon assay, gT1b. The following applies: Huh7 replicon cells, mean value. Type of data set: cell-based, Hepatitis C virus (HCV).
For another data set, the system named is HCV gT2a replicon. Briefly: HCV replicon assay, gT2a. The following applies: Huh7 replicon cells; mean. Format: cell-based, Hepatitis C virus (HCV). Here is the method: as §1, §2
The subject of a further data set is HCV gT5a replicon. Nature of the data set: HCV replicon assay, gT5a. Format: cell-based, Hepatitis C virus (HCV). To be noted: Huh7 replicon cells; mean; read-out: gT5a, EC50 (pM) mean. Here is the method: as §1, §2
The test system of the next data set is HCV gT1a replicon. Nature of the data set: HCV replicon assay, gT1a. Type of data set: cell-based, Hepatitis C virus (HCV). To be noted: Huh7 replicon cells; mean. As for the experimental part:
as §1, §2

For data set [1], the system named is human hepatoma cell line Huh7. Nature of the data set: Cytotoxicity, cell viability by ATPLite Kit. Type of data set: cell-based. The following applies: 96 hours, maximal inhibition. The method, boiled down:
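Huh7 cells seeded 18 h before compound addition, then exposed for 96 h at 37° C./5% CO2, triplicate dilutions. Viability read as ATP luminescence (ATPLite) after PBS wash and lysis; CC50 derived from the dilution series.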
For orientation: ATP-based viability assays read luminescence as a measure of living cells.

A further data set concerns HCV gT4a replicon. Briefly: HCV replicon assay, gT4a. Type of data set: cell-based, Hepatitis C virus (HCV). The following applies: Huh7 replicon cells; mean; read-out: gT4a, EC50 (pM) mean. Here is the method:
as §1, §2

Where two headings read alike, the source gives them in different places.

What is called EC50 is the midpoint of the concentration-response curve.

`COC(=O)N[C@H](C(=O)N1CCC[C@H]1c1ncc(-c2ccc(C#CC#Cc3cnc([C@@H]4CCCN4C(=O)[C@H](NC(=O)OC)c4ccccc4)[nH]3)c(-c3ccc(N(C)C)cc3)c2)[nH]1)C(C)C.Cl.Cl.Cl` [2(14)•2HCl, [(S)-1-((S)-2-{5-[4′-Dimethylamino-6-(4-{2-[(S)-1-((R)-2-methoxycarbonylamino-2-phenyl-acetyl)-pyrrolidin-2-yl]-3H-imidazol-4-yl}-buta-1,3-diynyl)-biphenyl-3-yl]-1H-imidazol-2-yl}-pyrrolidine-1-carbonyl)-2-methyl-propyl]-carbamic acid methyl ester troihydrochloride]: the EC50 with HCV gT3a replicon was determined as 38.5 pM; in the data set with HCV gT1b replicon (10% FBS, read-out: gT1b 10% FBS, EC50 (pM) mean), 1.51 pM; with HCV gT1b replicon (40% NHS, read-out: gT1b 40% NHS, EC50 (pM) mean), 13 pM; with HCV gT2a replicon, 12.8 pM; with HCV gT5a replicon it was 52 pM; with HCV gT1a replicon, 138 pM. Also, the 50% effective concentration (EC50) in the data set with HCV gT4a replicon was found to be 10.8 pM. Moreover, the “Cytotox gT1b 10% FBS max. inh.” value in data set [1] is recorded as 23%.

Values taken from patent US9790207B2, “Pan-genomic inhibitors of NS5A protein encoded by HCV, pharmaceutical compositions, intermediates for inhibitor synthesis, and their synthesis and application methods” (priority 2015, dated 2017).
